Results published in patent US20160310510A1, “MEDICINAL COSMETIC LIPOATROPHY” (priority 2009, published 2016).
“Also recorded” adds a separate entry of the source.

Columns and labels:
[1] = test system: SQ adipose tissue of the face; test: Facial MRI before and after triamcinolone injections, thickness of SQ adipose tissue; type: in vivo, human
Method: (§1) A series of cases of small localized fat deposits on the face were treated with local triancinolone from March 2005 to October 2008 at a private clinic in Porto Alegre, southern of Brazil. […] They received injections of triamcinolone (Kenalog®-40 Injection) diluted in anesthetic solution (0.02 g/mL Lidocaine plus 0.0004 g/mL Phenilephrine—Novocol®), in different doses and number of applications (up to 3 injections, once a month), according to patient's needs. […] Patients received injections in these fatty areas of the face, through a 0.3 cc BD Ultra Fine II syringe with short needle of minimum 7 or 8 mm long.
One patient was submitted to a facial Magnetic Resonance Imaging (MRI) exam before and after the triamcinolone injections, in order to show the results in terms of the changes in the thickness of subcutaneous tissue. Magnetic resonance imaging examination was performed with 1.5 Tesla Closed Bore Scanner (Magnetom Symphony Maestro Class, Siemens, Erlangen, Germany) with dedicated flexible coils. T1-weighted (600 ms/14 ms, Time Repetition/Time Echo) and T2-weighted (2500 ms/45 ms, TR/TE) turbo spin echo sequences were performed in coronal, axial and sagittal planes, with emphasis on the sagittal plane. An experienced radiologist evaluated the MRI images. The thickness of SQ adipose tissue was measured with Syngo software (Siemens, Erlangen, Germany) in millimetres (mm).

adipocytes = test: Punch biopsies before and after single treatment, HE histology and morphometry of adipocytes; type: in vivo, human
Method: as §1
Another patient was submitted to 3 mm punch biopsies (one on the submental area and another on suprapubical area) before and after single treatment. Histological specimens of SQ tissue were stained with hematoxylin and eosin (HE stain) and […] was also performed in the histological images of before and after treatment samples.

[2] = cited from earlier work
[3] = test system: small localized fat deposits on the face; test: Retrospective series of 56 patients treated with local triamcinolone injections: clinical evaluation, satisfaction, side effects

**Q.** Which results are given for `CC1(C)O[C@@H]2C[C@H]3[C@@H]4CCC5=CC(=O)C=C[C@]5(C)[C@@]4(F)[C@@H](O)C[C@]3(C)[C@]2(C(=O)CO)O1` [triamcinolone, Triamcinolone acetonide]?
**A.** reduction of the thickness of the study area of facial fat (MRI) ([1]; after single session of injections, FIGS. 3 and 4): 27.3%; thickness of the study area of facial fat after treatment (MRI) ([1]; after single session, before treatment 1.1 cm): 0.8 cm; reduction of the fat thickness showed by MRI ([1]; mandibular area): 37.5%; fat thickness after treatment (MRI) ([1]; mandibular area, before treatment 0.8 cm): 0.5 cm; reduction of the fat thickness showed by MRI ([1]; submental area): 33.3%; fat thickness after treatment (MRI) ([1]; submental area, before treatment 0.6 cm): 0.4 cm; reduction in the volume of adipocytes in the sites of the injections (histological analysis) (adipocytes; before and after single treatment biopsies): about 30%; average number of adipocytes observed in the optical field at the same magnification (adipocytes; suprapubical area biopsy, one month after a single injection, before treatment 4): 7 adipocytes per field; average diameter of the adipocytes (adipocytes; suprapubical area biopsy, one month after a single injection, before treatment 190): 153 pixels; average area of the adipocytes (adipocytes; suprapubical area biopsy, one month after a single injection, before treatment 31661): 21705 pixels; concentration with greater risk of cutaneous atrophy ([2]; intralesional injections, Pariser and Murray 1963): above 5 mg/cm^3; safe dose ([2]; local injections): less than 0.15 mg/kg; subject satisfaction with the results of the procedure ([3]; 29 subjects (51.78%) who returned for evaluation): very satisfied; physician evaluation of clinical and cosmetic improvement ([3]; 29 subjects who returned for evaluation): good clinical and cosmetic improvement of facial contour; serious / severe adverse events ([3]; Kenalog-40 diluted in lidocaine plus phenilephrine, up to 3 monthly subcutaneous injection sessions): No severe local or systemic side effects were observed; also recorded: did not presented serious adverse events; local side effects observed ([3]; during and after the injections): pain and slight erythema; also recorded: hematomas in variable number and size; number of patients with cosmetic local side effects ([3]; of the treated series): three
